Laboratory results: US20240092784A1, “CONDENSED HETEROCYCLIC COMPOUND” (NISSAN CHEMICAL CORPORATION, priority 2020, published 2024)
Where a name gives a salt, the structure may show the parent alone.

Molecular target: human SPR (Homo sapiens (Human), UniProt P35270)
Experiment: Evaluation Example 2: Measurement of human SPR inhibitory activity (seven concentrations, sepiapterin absorbance at 420 nm)
Assay type: biochemical
Settings: Evaluation Example 2, seven concentrations 0.14 nM to 100 nM, 240 minutes at room temperature, hydrochloride, read-out: IC50
Method: Human SPR was prepared as described below. The full-length human SPR (1-261) cDNA was purchased from Eurofins Genomics as an artificially synthesized plasmid containing a DNA sequence optimized for the E. coli expression system so that the sequence of the expressed protein after transcription and translation matches the sequence described in UniprotKB (P35270).
Linearized insert and vector were prepared by PCR using primers designed for amplification of human SPR cDNA and primers designed to contain the thrombin recognition sequence of pET28a (Novagen) and a polyhistidine tag. Cloning was performed using In-Fusion (registered trademark) HD Cloning Kit (TaKaRa) to thereby construct a human SPR expression plasmid. The resultant human SPR expression plasmid was transformed into BL21 (DE3) competent cells (INVITROGEN).
The cells were inoculated into LB medium (1% triptone, 0.5% yeast extract, 1% sodium chloride) containing […] of kanamycin, and then precultured at 37° C. overnight. The precultured cells were inoculated into TB medium (1.2% triptone, 2.4% yeast extract, 9.4% dipotassium hydrogen phosphate, 2.2% potassium dihydrogen phosphate, 0.8% glycerin) containing […] of kanamycin, and the cultured at 37° C., to thereby induce SPR expression with 0.5 mM IPTG for four hours. After the induction, the cells were collected by centrifugation at 6,000 G for 30 minutes and washed with PBS, and the washing was discarded. The washed cells were suspended in buffer solution A (20 mM MES, pH 6.5, 100 mM sodium chloride, 1 mM DTT, 5 mM imidazole). Subsequently, the cell suspension was subjected to ultrasonic treatment to thereby homogenize the cells. The cell homogenate was clarified by centrifugation at 30,000 G for 60 minutes and then filtered with a […]. The filtrate was allowed to pass through HisTrapFF 5 mL column (GE Healthcare). The resin was washed with buffer A, and then gradient elution was performed with buffer B (20 mM MES, pH 6.5, 100 mM sodium chloride, 1 mM DTT, 500 mM imidazole). Thrombin was added to a fraction containing the SPR protein, and the mixture was dialyzed in buffer A overnight, to thereby cleave the tag. After removal of the thrombin by with Benzamidine Sepharose 4 FF (GE Healthcare), the resultant product was allowed to pass through the HisTrapFF 5 mL column, to thereby remove the tag, followed by concentration with Amicon Ultra 10,000 NMWL (Merck Millipore). The concentrate was purified by gel filtration using HiLoad 16/60 Superdex 75 pg (GE Healthcare) equilibrated with buffer C (20 mM MES, pH 6.5, 100 mM sodium chloride, 1 mM DTT). The fraction containing SPR protein was concentrated and then cryopreserved at −80° C.
Human SPR inhibitory activity was measured by using a 384-well low adsorption clear plate (Greiner) with buffer D containing 100 mM Tris-HCl (pH 7.5) (Thermo Fisher Scientific) and 0.01% bovine serum albumin (Sigma). A compound was diluted with DMSO to achieve seven different final concentrations; i.e., 0.14 nM, 0.41 nM, 1.23 nM, 3.7 nM, 11.1 nM, 33 nM, and 100 nM. A 1.5 μL aliquot of the compound solution prepared with DMSO was diluted with 250 μL of buffer D, and the thus-diluted solution was dispensed into the 384-well plate at 20 μL/well. Thereafter, human SPR was diluted with buffer D to 150 ng/mL and then dispensed into the 384-well plate at 20 μL/well. Subsequently, 40 μL of ultrapure water containing 120 μM sepiapterin (produced by the method described in L-Sepiapterin, Heterocycles, 2008, 76, 1329-1335 and WO 2013/168693) and 160 μM NADPH (Nacalai) was added to each well, and then reaction was initiated. The reaction mixture was incubated at room temperature for 240 minutes. Thereafter, in order to determine the amount of sepiapterin, the absorbance at 420 nm was measured by applying the 384-well plate to EnSpire multimode plate reader (Perkin Elmer). The percent inhibition (%) of human SPR by the test compound was calculated by the following formula.

Chain of human SPR (P35270 whole entry): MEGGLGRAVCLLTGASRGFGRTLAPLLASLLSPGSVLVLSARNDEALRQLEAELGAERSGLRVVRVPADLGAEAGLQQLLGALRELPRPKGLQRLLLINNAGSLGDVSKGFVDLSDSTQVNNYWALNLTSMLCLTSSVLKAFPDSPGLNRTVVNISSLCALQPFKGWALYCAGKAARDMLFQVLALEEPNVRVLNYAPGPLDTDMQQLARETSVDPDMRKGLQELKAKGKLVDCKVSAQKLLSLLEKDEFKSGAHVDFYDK

In the case of `CC(C)(C)Cn1c(=O)c(C(=O)NC2CC2)c(O)n2nc(N)cc12` [Synthesis Example 4, 2-Amino-N-cyclopropyl-7-hydroxy-4-neopentyl-5-oxo-4,5-dihydropyrazolo[1,5-a]pyrimidine-6-carboxamide hydrochloride], the IC50 is reported as 0.9 nM.

Same assay, conditions: Evaluation Example 2, seven concentrations 0.14 nM to 100 nM, 240 minutes at room temperature, read-out: IC50

`CC(C)Cn1c(=O)c(C(=O)NC2CC2)c(O)n2ncc(/C=C/C(=O)N3CCOCC3CC(F)(F)F)c12` (single isomer, unassigned; isomer b) [compound 551, (E)-N-Cyclopropyl-7-hydroxy-4-isobutyl-5-oxo-3-(3-oxo-3-(3-(2,2,2-trifluoroethyl)morpholino)prop-1-en-1-yl)-4,5-dihydropyrazolo[1,5-a]pyrimidine-6-carboxamide (Isomer B)] and `CC(C)Cn1c(=O)c(C(=O)NC2CC2)c(O)n2ncc(C(=O)N3CCOCC3)c12` [Synthesis Example 227, N-Cyclopropyl-7-hydroxy-4-isobutyl-3-(morpholine-4-carbonyl)-5-oxo-4,5-dihydropyrazolo[1,5-a]pyrimidine-6-carboxamide] are within 1.5-fold of each other in IC50: 0.84 nM for the first, 0.65 nM for the second.

Going from `CC(C)Cn1c(=O)c(C(=O)NC2CC2)c(O)n2ncc(C(=O)NCc3ccccn3)c12` [Synthesis Example 215, N6-Cyclopropyl-7-hydroxy-4-isobutyl-5-oxo-N3-(pyridin-2-ylmethyl)-4,5-dihydropyrazolo[1,5-a]pyrimidine-3,6-dicarboxamide] to `CC(C)Cn1c(=O)c(C(=O)NC2CC2)c(O)n2ncc(C(=O)Nc3ccccn3)c12` [Synthesis Example 225, N6-Cyclopropyl-7-hydroxy-4-isobutyl-5-oxo-N3-(pyridin-2-yl)-4,5-dihydropyrazolo[1,5-a]pyrimidine-3,6-dicarboxamide], the IC50 rises from 1.04 nM to 1.84 nM (1.8-fold).

`CC(C)Cn1c(=O)c(C(=O)NC2CC2)c(O)n2ncc(C(=O)NCc3cccnc3)c12` [Synthesis Example 216, N6-Cyclopropyl-7-hydroxy-4-isobutyl-5-oxo-N3-(pyridin-3-ylmethyl)-4,5-dihydropyrazolo[1,5-a]pyrimidine-3,6-dicarboxamide] and `CC(C)Cn1c(=O)c(C(=O)NC2CC2)c(O)n2ncc(C(=O)NCc3ccncc3)c12` [Synthesis Example 217, N6-Cyclopropyl-7-hydroxy-4-isobutyl-5-oxo-N3-(pyridin-4-ylmethyl)-4,5-dihydropyrazolo[1,5-a]pyrimidine-3,6-dicarboxamide] are within 1.5-fold of each other in IC50: 0.78 nM for the first, 0.69 nM for the second.

`CC(C)Cn1c(=O)c(C(=O)NC2CC2)c(O)n2ncc(C(=O)N[C@@H](C)c3ccccn3)c12` [Synthesis Example 218, (S)-N6-Cyclopropyl-7-hydroxy-4-isobutyl-5-oxo-N3-(1-(pyridin-2-yl)ethyl)-4,5-dihydropyrazolo[1,5-a]pyrimidine-3,6-dicarboxamide] and `CC(C)Cn1c(=O)c(C(=O)NC2CC2)c(O)n2ncc(C(=O)N[C@H](C)c3ccccn3)c12` [Synthesis Example 219, (R)-N6-Cyclopropyl-7-hydroxy-4-isobutyl-5-oxo-N3-(1-(pyridin-2-yl)ethyl)-4,5-dihydropyrazolo[1,5-a]pyrimidine-3,6-dicarboxamide] are within 1.5-fold of each other in IC50: 0.89 nM for the first, 0.98 nM for the second.

`CC(C)Cn1c(=O)c(C(=O)NC2CC2)c(O)n2ncc(C(=O)NCc3cnccn3)c12` [Synthesis Example 220, N6-Cyclopropyl-7-hydroxy-4-isobutyl-5-oxo-N3-(pyrazin-2-ylmethyl)-4,5-dihydropyrazolo[1,5-a]pyrimidine-3,6-dicarboxamide] and `Cc1cnc(CNC(=O)c2cnn3c(O)c(C(=O)NC4CC4)c(=O)n(CC(C)C)c23)cn1` [Synthesis Example 224, N6-Cyclopropyl-7-hydroxy-4-isobutyl-N3-((5-methylpyrazin-2-yl)methyl)-5-oxo-4,5-dihydropyrazolo[1,5-a]pyrimidine-3,6-dicarboxamide] are within 1.5-fold of each other in IC50: 0.79 nM for the first, 0.78 nM for the second.

`CC(C)Cn1c(=O)c(C(=O)NC2CC2)c(O)n2ncc(C(=O)NCC3CCOCC3)c12` [Synthesis Example 221, N6-Cyclopropyl-7-hydroxy-4-isobutyl-5-oxo-N3-((tetrahydro-2H-pyran-4-yl)methyl)-4,5-dihydropyrazolo[1,5-a]pyrimidine-3,6-dicarboxamide] and `CC(C)Cn1c(=O)c(C(=O)NC2CC2)c(O)n2ncc(C(=O)NCC3CC(F)(F)C3)c12` [Synthesis Example 222, N6-Cyclopropyl-N3-((3,3-difluorocyclobutyl)methyl)-7-hydroxy-4-isobutyl-5-oxo-4,5-dihydropyrazolo[1,5-a]pyrimidine-3,6-dicarboxamide] are within 1.5-fold of each other in IC50: 0.64 nM for the first, 0.79 nM for the second.

`Cc1nn(C)c(C)c1CNC(=O)c1cnn2c(O)c(C(=O)NC3CC3)c(=O)n(CC(C)C)c12` [Synthesis Example 223, N6-Cyclopropyl-7-hydroxy-4-isobutyl-5-oxo-N3-((1,3,5-trimethyl-1H-pyrazol-4-yl)methyl)-4,5-dihydropyrazolo[1,5-a]pyrimidine-3,6-dicarboxamide] and `Cc1cc(CNC(=O)c2cnn3c(O)c(C(=O)NC4CC4)c(=O)n(CC(C)C)c23)n(C)n1` [Synthesis Example 229, N6-Cyclopropyl-N3-((1,3-dimethyl-1H-pyrazol-5-yl)methyl)-7-hydroxy-4-isobutyl-5-oxo-4,5-dihydropyrazolo[1,5-a]pyrimidine-3,6-dicarboxamide] are within 1.5-fold of each other in IC50: 1.12 nM for the first, 0.85 nM for the second.

`CC(C)Cn1c(=O)c(C(=O)NC2CC2)c(O)n2ncc(C(=O)NCc3ccc(C(F)(F)F)nc3)c12` [Synthesis Example 226, N6-Cyclopropyl-7-hydroxy-4-isobutyl-5-oxo-N3-((6-(trifluoromethyl)pyridin-3-yl)methyl)-4,5-dihydropyrazolo[1,5-a]pyrimidine-3,6-dicarboxamide] and `Cc1ccc(CNC(=O)c2cnn3c(O)c(C(=O)NC4CC4)c(=O)n(CC(C)C)c23)nc1` [Synthesis Example 228, N6-Cyclopropyl-7-hydroxy-4-isobutyl-N3-((5-methylpyridin-2-yl)methyl)-5-oxo-4,5-dihydropyrazolo[1,5-a]pyrimidine-3,6-dicarboxamide] are within 1.5-fold of each other in IC50: 1.07 nM for the first, 1.02 nM for the second.

`CC(C)Cn1c(=O)c(C(=O)NC2CC2)c(O)n2ncc(C(=O)N(C)Cc3cccnc3)c12` [Synthesis Example 230, N6-Cyclopropyl-7-hydroxy-4-isobutyl-N3-methyl-5-oxo-N3-(pyridin-3-ylmethyl) 4,5-dihydropyrazolo[1,5-a]pyrimidine-3,6-dicarboxamide] and `CC(C)Cn1c(=O)c(C(=O)NC2CC2)c(O)n2ncc(C(=O)NCc3ncccn3)c12` [Synthesis Example 231, N6-Cyclopropyl-7-hydroxy-4-isobutyl-5-oxo-N3-(pyrimidin-2-ylmethyl)-4,5-dihydropyrazolo[1,5-a]pyrimidine-3,6-dicarboxamide] are within 1.5-fold of each other in IC50: 0.93 nM for the first, 0.65 nM for the second.

`CC(C)Cn1c(=O)c(C(=O)NC2CC2)c(O)n2ncc(C(=O)NCc3ccc(C#N)cc3)c12` [Synthesis Example 232, N3-(4-Cyanobenzyl)-N6-cyclopropyl-7-hydroxy-4-isobutyl-5-oxo-4,5-dihydropyrazolo[1,5-a]pyrimidine-3,6-dicarboxamide] and `CC(C)Cn1c(=O)c(C(=O)NC2CC2)c(O)n2ncc(C(=O)NCc3ccccc3F)c12` [Synthesis Example 233, N6-Cyclopropyl-N3-(2-fluorobenzyl)-7-hydroxy-4-isobutyl-5-oxo-4,5-dihydropyrazolo[1,5-a]pyrimidine-3,6-dicarboxamide] are within 1.5-fold of each other in IC50: 1.25 nM for the first, 1.03 nM for the second.
